Reference: PMC8322648, “Brevibacillin 2V Exerts Its Bactericidal Activity via Binding to Lipid II and Permeabilizing Cellular Membranes” (Frontiers in Microbiology, 2021)

Legend:
[1] = system: membrane of Gram-positive bacteria; settings: ref Yang et al., 2017; cited from earlier work
Source text: A vast number of bacterial non-ribosomally produced peptides (NRPs) have shown strong antimicrobial activity against pathogenic bacteria ([Cochrane et al., 2014]; [Cociancich et al., 2015]; [Hamamoto et al., 2015]; [Ling et al., 2015]; [Süssmuth and Mainz, 2017]). Lipo-tridecapeptides, a class of NRPs, show strong antimicrobial activity against Gram-positive pathogens, including antibiotic-resistant Staphylococcus aureus and Enterococcus spp. ([Barsby et al., 2001], [2006]; [Yang et al., 2016]; [Wu et al., 2019]; [Zhao et al., 2021]). However, many of these lipo-tridecapeptides have shown high ...

[2] = ref Zhao et al., 2021; cited from earlier work
[3] = 31P solid-state NMR of Lipid II in liposomes; type: binding; settings: combined ssNMR, CD and ITC assays
Protocol: Multi-lamellar vesicles of DOPC doped with 2 mol % Lys-Lipid II in buffer (20 mm HEPES, 100 mm NaCl, and pH = 8) were collected by centrifugation (60,000 × g) and loaded into 3.2 mm ssNMR rotors. For 3.2 mm rotors, we used 200 nmol of antibiotic with 100 nmol of Lipid II. The 1D ^31P ssNMR experiments were performed at 500 MHz (^1H frequency) magnetic field using 10 kHz magic angle spinning (MAS) at 270 K sample temperature.

## Brevibacillin
[1]
  membrane permeabilization: can permeabilize the membrane of Gram-positive bacteria

## Brevibacillin 2V
[2]
  stability in human plasma: good stability in human plasma
[3]
  Lipid II binding site: binds to the GlcNAc-MurNAc moiety and/or the pentapeptide of Lipid II
